PMC11986975, “A Cdk5 inhibitor restores cognitive function and alleviates type 2 diabetes in mice” (iScience, 2025)

Assays:
[1] = MTT cell toxicity assay in HepG2 cells; type: cell-based; settings: human, all doses (25 to 100 μM)
Procedure: (§1) HEK293T, HepG2, and N2A cells were used in the study representing kidney, liver and neuronal cell lines respectively. The cells were cultured in DMEM supplemented with 10% fetal bovine serum and antibiotics at 37°C under 5% CO2. The cells were tested negative for mycoplasma.
(§2) To evaluate the compound toxicity for the Cdk5 inhibitors, an MTT assay was performed in HEK293T, HepG2, and N2A cells at varying concentrations. Six hours after cell seeding, the compounds were added in different amounts, and the cells were harvested after 24 h for further analysis. N2A cells were transfected using Lipofectamine-3000 reagent, co-transfecting with plasmids encoding Cdk5/p35 and Cdk5/p25 for 12 h, followed by inhibitor treatment to assess their effects in the cell culture system. The concentrations of each plasmids used was 1 μg, total of 3 μg per well for 6 well plates.

[2] = tested on: HFD-fed mice; assay: Grip strength test in HFD mice; type: in vivo; settings: i.p., 40 mg/kg/day, 20 days
Procedure: A grip strength meter was used to measure the forelimb grip strength in mice.[54] The mouse was given a chance to grab the gauge with its forelimbs before having its tail gently pulled back. Digital transducers were used to record the muscular force. Five trials were conducted on each mouse.[23]

[3] = MTT cell toxicity assay in HEK293T cells; type: cell-based; settings: human, all doses (25 to 100 μM)
Procedure: as §1, §2

[4] = LC-MS of brain lysate and serum after intraperitoneal injection in HFD mouse model; type: in vivo; settings: C57BL/6J, ip, HFD mice, LC-MS peak area in brain lysate compared to serum
Procedure: To assess the BBB penetrability of BLINK11 and BLINK15 in the high-fat diet (HFD) mouse model, intraperitoneal injections were administered, and liquid chromatography-mass spectrometry (LC-MS) analysis was conducted on both brain lysate and serum samples (Figure 3). The LC-MS results depicted in Figures 3A and 3B showcase the peaks corresponding to the BLINK11 compound in the brain lysate and serum, respectively. Similarly, Figures 3C and 3D illustrate the peaks associated with the BLINK15 compound in the brain lysate and serum, respectively. […] These analyses provide a quantitative measure of the presence of the compounds in the respective samples. Furthermore, to ascertain the relative distribution of BLINK11 and BLINK15 in the brain compared to serum, the percentages of each compound present in the brain were calculated and plotted in a bar graph (Figure 3G). […]
Metabolites, comprising the entire spectrum within the lysate excluding proteins but inclusive of drugs, were extracted from plasma and brain tissue homogenate samples. […] Compounds were analyzed in these samples using a multiple reaction monitoring method (using parameters mentioned in Table S5) on a triple quadrupole hybrid ion trap mass spectrometer (QTRAP 6500+, SCIEX) coupled with an ExionLC UHPLC system (SCIEX). […] Relative quantification was performed using MultiQuantTM software v.3.0 (SCIEX). […]

[5] = tested on: Cdk9/CylT; assay: Specificity kinase assay, Cdk9 with cyclin T; type: biochemical; settings: inhibitor 0-100 nM
Source text: (§3) To assess the specificity of inhibitors BLINK11 and BLINK15 against CDK5, we investigated their effects on different Cdks, i.e., Cdk1, Cdk2, and Cdk9 that share structural homology with CDK5. […] However, these IC50 values were higher than those observed for CDK5/p35 and CDK5/p25. […] Overall, BLINK11 and BLINK15 can selectively target CDK5 at lower concentrations.
ligands are illustrated with red lines. The RMSD plots for the interactions of BLINK11 and
Figure S3: BBB Permeability assay and Evaluation of non-specific kinase inhibition by
BLINK11 and BLINK15 (A-B) PAMPA assay results of BLINK11 and BLINK15 compound.
(§4) IC50 of all the kinases for both BLINK11 and BLINK15 inhibitors.
(1 picture or pasted object on this page, not shown here)

[6] = tested on: Cdk2/CylA2; assay: Specificity kinase assay, Cdk2 with cyclin A2; type: biochemical; settings: inhibitor 0-100 nM
Source text: as §3, with “concentrations. […]” for “concentrations.”
as §4

[7] = tested on: HFD-fed mice; assay: Elevated plus maze (EPM) in HFD mice; type: in vivo; settings: i.p., 20 days, compared to HFD group
Source text: In order to examine anxiety-like behavior, phenotype transgenic and knockout mice, and screen for anxiolytic and anxiogenic medicines, this maze takes advantage of the natural fear of open, high areas in rodents.[56]^,[57]
The EPM experiment is a widely utilized technique in behavioral neuroscience to evaluate anxiety-related behaviors in mice.[57] The apparatus comprises two open arms and two closed arms arranged in a plus-shaped configuration and elevated above the ground. Mice are introduced to the center of the maze, and their movements are observed over a set period of 5 min.[56]^,[58] The amount of time spent in the open arms versus the closed arms is recorded, with more time in the open arms indicating lower anxiety levels. The distance traveled in each arm were also analyzed using ANYmaze software. This method leverages the natural tendency of rodents to avoid open spaces and seek enclosed areas.

Kp [4] | Inhibition of Cdk9 (with cyclin T) [5] | Inhibition of Cdk2 (with cyclin A2) [6] | Compound | viability at 24 h [1] | Grip strength [2] | viability at 24 h [3] | Anxiety behavior in elevated plus maze (time in open and closed arms) [7]
0.11 | minimal inhibition | minimal inhibition | COc1ccc(C(=O)C[C@@]2(O)C(=O)N(Cc3ccccc3)c3ccc(Br)cc32)cc1[N+](=O)[O-] [BLINK15] | > 50% | rescue behavior | > 50% | no significant difference compared to the HFD group
0.38 | minimal inhibition | minimal inhibition | O=C(COc1ccccc1C(=O)Nc1cccc(Cl)c1Cl)Nc1ccc(N2CCOCC2)c(Cl)c1 [BLINK11, 2-(2-((3-chloro-4-morpholinophenyl)amino)-2-oxoethoxy)-N-(2,3-dichlorophenyl)benzamide] | > 50% | rescue behavior | > 50% | rescuing effect on anxiety behavior
